Measured values from patent publication US9868705B2, “Tetra-aryl cyclobutane inhibitors of androgen receptor action for the treatment of hormone refractory cancer” (The Board of Trustees of the University of Illinois, priority 2013, dated 2018).
Where a chain is given by its changes, count along the chain named. pIC50: −log10 of the molar value. Where two headings read alike, the source gives them in different places.

Tests used:
[1] = target: T1, T877A (LNCaP) AR (Homo sapiens, UniProt P10275, T878A); test: MMTV-luciferase transcription assay in CV-1 cells, T877A AR; assay type: cell-based
T1 construct: expressed in transfected cells; host or cells: CV-1
T1 sequence (P10275 1-920 T878A): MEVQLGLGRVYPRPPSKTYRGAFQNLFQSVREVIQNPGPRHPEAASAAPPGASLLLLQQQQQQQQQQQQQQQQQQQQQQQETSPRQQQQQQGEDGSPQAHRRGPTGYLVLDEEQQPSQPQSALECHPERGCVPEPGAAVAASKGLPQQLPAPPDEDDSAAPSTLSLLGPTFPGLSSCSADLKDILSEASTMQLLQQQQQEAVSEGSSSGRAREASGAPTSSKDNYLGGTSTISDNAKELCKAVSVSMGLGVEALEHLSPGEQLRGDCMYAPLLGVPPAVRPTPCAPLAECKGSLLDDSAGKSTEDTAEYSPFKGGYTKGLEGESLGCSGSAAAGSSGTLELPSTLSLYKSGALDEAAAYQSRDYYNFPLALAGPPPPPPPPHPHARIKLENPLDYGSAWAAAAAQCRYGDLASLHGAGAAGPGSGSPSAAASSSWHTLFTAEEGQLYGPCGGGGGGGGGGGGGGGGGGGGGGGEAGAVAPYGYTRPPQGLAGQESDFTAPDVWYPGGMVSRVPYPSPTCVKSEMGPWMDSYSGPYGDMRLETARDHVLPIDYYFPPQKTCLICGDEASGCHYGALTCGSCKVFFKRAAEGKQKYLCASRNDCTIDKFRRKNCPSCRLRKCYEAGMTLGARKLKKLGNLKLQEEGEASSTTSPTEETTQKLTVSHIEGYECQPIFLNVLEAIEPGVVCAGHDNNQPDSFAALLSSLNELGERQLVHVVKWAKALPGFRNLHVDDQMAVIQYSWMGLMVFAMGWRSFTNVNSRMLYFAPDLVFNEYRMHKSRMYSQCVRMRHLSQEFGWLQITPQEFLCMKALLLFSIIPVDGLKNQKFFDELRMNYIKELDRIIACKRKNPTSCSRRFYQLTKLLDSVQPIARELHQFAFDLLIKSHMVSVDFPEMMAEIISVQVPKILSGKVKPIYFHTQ
Source text: (§1) These compounds were screened using an AR-responsive MMTV transcription assay in CV-1 cells, utilizing both wild type and T877A (LNCaP) AR. […]

[2] = target: T2, wild type AR (Homo sapiens, UniProt P10275); test: MMTV-luciferase transcription assay in CV-1 cells, wild type AR; assay type: cell-based; conditions: CV1 transient transfection, MMTV-Luciferase reporter; read-out: IC50 WT
T2 construct: expressed in transfected cells; host or cells: CV-1
T2 sequence (P10275 1-920): T1 sequence (P10275 1-920 T878A) with A878T
Source text: as §1

[3] = target: T3, W741C AR (Homo sapiens, UniProt P10275, W742C); test: MMTV-luciferase transcription assay in CV-1 cells, W741C AR
T3 sequence (P10275 1-920 W742C): T1 sequence (P10275 1-920 T878A) with W742C, A878T

[4] = target: T4, AR (Homo sapiens, UniProt P10275); test: Cellular location of AR by microscopy
T4 sequence (P10275 1-920): T1 sequence (P10275 1-920 T878A) with A878T

[5] = tested on: androgen receptor; test: Whole-cell competition binding assay using 3H-R1881; conditions: whole cells; mutant AR and WT-AR
[6] = tested on: LNCaP (AR-T877A) xenograft; test: LNCaP xenograft model of prostate cancer in mice; assay type: in vivo
Source text: Our goal in this example is to identify small molecules that block activity of mutant androgen receptors (ARs) but not wild type AR, by synthesizing a library of compounds, to explore possible mechanisms of action, and to evaluate therapeutic potential. A total of 75 tetra-aryl substituted cyclobutanes (CBs) were synthesized. FIG. 18 illustrates a general reaction scheme for the synthesis of some of these compounds from the photo cycloaddition of 2,4-dichloro-6-styrylpyrimidine. FIG. 19 illustrates a general reaction scheme for the synthesis from the photo cycloaddition of 2,4-disubstituted 6-styrylpyrimidines. LNCaP cell proliferation was evaluated. LNCaP cells are a cell line of human cells commonly used in the field of oncology. LNCaP cells are androgen-sensitive human prostate adenocarcinoma cells derived from the left supraclavicular lymph node metastasis from a person in 1977. They are adherent epithelial cells growing in aggregates and as single cells. […] . FIGS. 21A, B, C, and D are graphic summaries of the results for cyclobutane compound CB-7. […] Prostate cancer was the most common tumor among men in the United States in 2012, with over 240,000 diagnoses and approximately 28,000 deaths. […] . FIG. 23 illustrates the androgen receptor ligand binding domain bound to testosterone. FIG. 24 illustrates mouse survival data from a mutant androgen receptor-T877A xenograft experiment for CB-7 at various concentrations. […] . FIGS. 25A and B provide data on AR mutant selectivity for compounds CB-1 to CB-8. […] It is seen that the cyclobutanes show selectivity of mutant androgen receptor activation in the luciferase transcriptional assay in CV-1 cells (a commercially available cell line derived from the kidney of an African green monkey). FIGS. 26 and 27A and B illustrate data from a ligand competition assay for compounds CB-1, CB-6, and CB-7.
Based on the above results, we further evaluated the effects of CB 10 in vivo. […] We also utilized a traditional in vivo model of prostate cancer, the LNCaP xenograft model.

[7] = tested on: wild type androgen receptor; test: FKBP51 endogenous gene expression in LNCaP-AR cells (wild type AR overexpressed); assay type: cell-based, human; conditions: at 20 M (so in the source)
Source text: (§2) FIG. 44 depicts data for dose-dependent inhibition of androgen receptor-dependent endogenous gene expression of FKBP51 by Compound 1 of Example IV in LNCaP cells producing exclusively T877A mutant androgen receptor (LNCaP-XIP) and LNCaP cells transfected with wild type androgen receptor (LNCaP-androgen receptor, ratio of wild type to T877A receptor is ca. 3:1).
(§3) To more fully characterize the selectivity of compound 1 for the mutant receptor, we measured its inhibitory potential against the WT and T877A mutant receptor in an AR-dependent luciferase transcription assay in CV-1 cells (FIGS. 43A and B).

[8] = target: T5, T877A mutant androgen receptor (Homo sapiens, UniProt P10275, T878A); test: FKBP51 endogenous gene expression in LNCaP-XIP cells; assay type: cell-based; conditions: FKBP51 expression, T877A mutant receptor
T5 construct: endogenous in cells; host or cells: LNCaP-XIP
T5 sequence (P10275 1-920 T878A): T1 sequence (P10275 1-920 T878A)
Source text: as §2, §3

[9] = target: T4, AR; test: AR relative binding affinity (RBA)
[10] = tested on: XIP-AR cells; test: XIP-AR cell proliferation; conditions: XIP-AR overexpressing cells
[11] = target: T4, AR; test: AR target gene expression in XIP-AR cells; conditions: in the presence of R1881
[12] = tested on: LNCaP cells; test: LNCaP cell proliferation; conditions: androgen-stimulated LNCaP cells
[13] = target: T4, AR; test: Chromatin immunoprecipitation of AR at androgen-response elements in XIP-AR cells
[14] = LNCaP (AR-T877A) xenograft, concentrations comparable to MDV3100

Q: How did the pIC50 ([1]; CV1 transient transfection, MMTV-Luciferase reporter, read-out: IC50 T877A) turn out when `CNc1cc([C@H]2[C@H](c3ccccc3)[C@H](c3cc(NC)nc(NC)n3)[C@H]2c2ccccc2)nc(NC)n1` [CB-51] was run?
A: The pIC50 was < 4.70.

Q: And the pIC50 [2]?
A: Its pIC50 is < 4.70.

Q: What about the “IC50 W741C” value ([3]; CV1 transient transfection, MMTV-Luciferase reporter) of the same compound?
A: The value was “Toxic”.

Q: With `C[C@]1(O)CC[C@H]2[C@@H]3CCC4=CC(=O)CCC4=C3C=C[C@@]21C` [R1881, reference compound] as the compound, how does the “cellular location of AR after treatment” value [4] read?
A: Its value is “promote nuclear translocation”.

Q: `COc1ccc(CNc2cc([C@H]3[C@H](c4ccccc4)[C@H](c4cc(NCc5ccc(OC)cc5)nc(NCc5ccc(OC)cc5)n4)[C@H]3c3ccccc3)nc(NCc3ccc(OC)cc3)n2)cc1` [CB-7] was tested. Which “competition with 3H-R1881 for binding to AR” value (“competition with 3H-R1881” for short) [5] did it give?
A: The value was “compete with 3H-R1881”.

Q: And the survival of mice [6, 14]?
A: Its survival of mice is “increases survival of mice”.

Q: What about the tumor size [6, 14] of the same compound?
A: The tumor size was “decreases tumor size”.

Q: What does the source list for `Clc1nccc([C@H]2[C@H](c3ccccc3)[C@@H](c3ccnc(Cl)n3)[C@H]2c2ccccc2)n1` [DPM-21]?
A: increase in potency for T877A mutant over WT ([1]; AR-dependent luciferase transcription assay in CV-1 cells): approximately 100 fold; IC50 lower than 1 ([1]; T877A AR): approximately 10 fold; pIC50 ([1]; read-out: IC50 for T877A AR): ~7.00; increase in potency for W741C AR over WT receptor ([3]; AR-dependent luciferase transfection assay): approximately 10 fold

Q: What does the source list for `Cc1cc([C@H]2[C@H](c3ccccc3)[C@H](c3cc(C)nc(C)n3)[C@H]2c2ccccc2)nc(C)n1` [CB-49]?
A: inhibition of FKBP51 gene expression [7]: ca. 80%; concentration at which maximal inhibition is obtained [8]: 6 µM; AR RBA [9]: 0.027%

Q: `CC(C)(O)C(=O)Nc1ccc([N+](=O)[O-])c(C(F)(F)F)c1` [OHF, hydroxyflutamide, reference compound] was tested. Which “cell proliferation, compound alone” value [10] did it give?
A: Its value is “promote cell proliferation”.

Q: `Clc1nccc([C@H]2[C@H](c3ccccc3)[C@@H](c3ccnc(Cl)n3)[C@H]2c2ccccc2)n1` [CB 10] was tested. Which “reversal of androgen stimulated gene expression” value [11] did it give?
A: Its value is “reverse androgen stimulated gene expression similar to MDV”.

Q: What about the “competition with 3H-R1881” value [5] of the same compound?
A: The value was “effectively compete against R1881 binding”.

Q: And the “inhibition of LNCaP cell proliferation” value [12]?
A: Its value is “equally as well as MDV”.

Q: And the “tumor weight at study termination” value ([6]; escalating dose 5 mpk to 100 mpk)?
A: The value was “significant dose dependent inhibition of tumor growth”.

Q: And the tumor growth ([6]; intact male mice bearing LNCaP xenografts, 50 mpk or 100 mpk)?
A: The tumor growth was “significantly inhibited”.

Q: What about the “cellular location of AR after treatment” value ([4]; microscopy) of the same compound?
A: Its value is “AR is primarily outside of the nucleus”.

Q: What about the “AR recruitment to androgen-response elements of PSA and NKX3.1” value [13] of the same compound?
A: The value was “inhibit the recruitment”.

Q: For `COc1cc(C2C(c3ccccc3)C(c3cc(OC)nc(OC)n3)C2c2ccccc2)nc(OC)n1` (stereo not drawn) [CB 1], which “reversal of androgen stimulated gene expression” value [11] is on record?
A: The value was “less effective”.

Q: And the “competition with 3H-R1881” value [5]?
A: Its value is “effectively compete against R1881 binding”.
